Counter-ions that a name gives are not always drawn.
Key:
[1] = Hypoxia test (rat), normal pressure, survival time; format: in vivo, rats (wister-strain); conditions: 1.5 % O2 + 98.5 % N2
Description: (§1) Male mice (dd-strain) and rats (wister-strain) were taken to a closed room which was filled with a gas mixture consisting of 1.5 % oxygen and 98.5 % nitrogen, or was conditioned in reduced atmospheric pressure (145 mmHg). In the other hand, mice and rats were given sodium cyanide (10 mg/kg, i.p.). These animals died after a few minutes in such conditions. 1-(3'-Pyridyl)-3-(2'-hydroxyethyl)thiourea HCl was given 1 hour before these hypoxia tests.
(§2) In the Tables data mean the increase percent of the survival time to that of control.

[2] = Acute toxicity; format: in vivo; conditions: for LD50: mouse, in vivo, dd-strain male mice
Description: Acute toxicity of 1-(3'-pyridyl)-3-(2'-hydroxyethyl)thiourea hydrochloride was determined in dd-strain male mice.

[3] = Hypoxia test (mouse), normal pressure, survival time; format: in vivo, male mice (dd-strain); conditions: 1.5 % O2 + 98.5 % N2
Description: as §1, §2

[4] = test system: phosphorylase; experiment: Cerebral phosphorylase after cold injury (freezing lesion cerebral edema); format: in vivo; conditions: rats
Description: (§3) Cerebral edema was induced in rats by a freezing lesion (dry ice) made on the exposed dura of unilateral hemisphere. Edema was measured by the increase in water content of gray and white matter, the increase in phosphorylase activity and the decrease in Na^+, K^+ - ATPase activity of the injured brain. 1-(3'-Pyridyl)-3-(2'-hydroxyethyl)thiourea HCl was given 1 hour before and 24 hours after, and the animals were killed by decapitation 48 hours after the lesion treatment.

[5] = Cerebral water content after cold injury (freezing lesion cerebral edema); format: in vivo; conditions: rats
Description: as §3

[6] = Hypoxia test (rat), KCN, survival time; format: in vivo, rats (wister-strain); conditions: KCN 10 mg/kg i.p.

OCCNC(=S)Nc1cccnc1 [1-(3'-pyridyl)-3-(2'-hydroxyethyl)thiourea hydrochloride]
increase percent of the survival time to that of control ([1]; 30 mg/kg i.v.): 148%
increase percent of the survival time to that of control ([1]; 30 mg/kg p.o.): 36%
increase percent of the survival time to that of control ([1]; 100 mg/kg p.o.): 75%
increase percent of the survival time to that of control ([1]; 100 mg/kg s.c.): 192%
increase percent of the survival time to that of control ([1]; 300 mg/kg p.o.): 153%
acute lethal toxic symptoms ([2]; dose of LD50 or more): sedation and paralysis
LD50 ([2]; iv): 640 mg/kg
LD50 ([2]; po): > 2000 mg/kg
LD50 ([2]; sc): 1350 mg/kg
increase percent of the survival time to that of control ([3]; 30 mg/kg i.v.): 164%
increase percent of the survival time to that of control ([3]; 30 mg/kg p.o.): 105%
increase percent of the survival time to that of control ([3]; 100 mg/kg p.o.): 165%
increase percent of the survival time to that of control ([3]; 100 mg/kg s.c.): 147%
increase percent of the survival time to that of control ([3]; 300 mg/kg p.o.): 231%
Phosphorylase A/T × 100 (Active phosphorylase/Total phosphorylase) ([4]; 100 mg/kg p.o.): 68.5 ± 2.5
Phosphorylase, Active ([4]; 100 mg/kg p.o.): 0.242 ± 0.019 units/g
Phosphorylase A/T × 100 (Active phosphorylase/Total phosphorylase) ([4]; 300 mg/kg p.o.): 66.4 ± 2.7
Phosphorylase, Active ([4]; 300 mg/kg p.o.): 0.220 ± 0.057 units/g
effect on the increase in phosphorylase activity ([4]; 300 mg/kg p.o.): protective effect
H2O, Gray matter ([5]; 100 mg/kg p.o.): 81.5%
H2O, White matter ([5]; 100 mg/kg p.o.): 80.3%
effect on the increase in water content ([5]; 300 mg/kg p.o.): protective effect
H2O, Gray matter ([5]; 300 mg/kg p.o.): 79.7%
H2O, White matter ([5]; 300 mg/kg p.o.): 79.5%
increase percent of the survival time to that of control ([6]; 30 mg/kg i.v.): 174%
increase percent of the survival time to that of control ([6]; 30 mg/kg p.o.): 45%
increase percent of the survival time to that of control ([6]; 100 mg/kg p.o.): 116%
increase percent of the survival time to that of control ([6]; 100 mg/kg s.c.): 169%
increase percent of the survival time to that of control ([6]; 300 mg/kg p.o.): 187%

Source: US3992391A, “1,3-Disubstituted thiourea compounds and preparation thereof” (priority 1972, dated 1976)
